# PMC12430429, “Synthesis, Structure, DNA/BSA Binding, DNA Cleaving, Cytotoxic and SOD Mimetic Activities of Copper(II) Complexes Derived from Methoxybenzylamine Schiff Base Ligands” (Molecules, 2025)
# Read-outs that look alike come from different tables or passages of the source.
# Columns and labels:
# A549 cells = assay: MTT cytotoxicity assay, A549; assay type: cell-based, human; details: 72 h
# Procedure: (§1) The cytotoxicity study of the prepared copper(II) complexes was performed using the MTT assay on human cell lines—A549 (adenocarcinoma human alveolar basal epithelial cell line), HepG2 (human liver cancer cell line) and HEL (human lung fibroblast cell line, normal cells).
# (§2) The cytotoxicity of the prepared copper(II) complexes in human cell lines was evaluated using the 3-(4,5-dimethylthiazol-2-yl)-2,5-diphenyltetrazolium bromide (MTT) assay following the protocol by Mosmann. Briefly, A549 (human lung epithelial cells, carcinoma), HepG2 (human liver epithelial cells, carcinoma) and HEL (human lung fibroblast cells, normal) cells were seeded in plastic 96-well plates at a density of 1.5–2 × 10^4 cells per well. […] After the treatment, the samples were washed with phosphate-buffered saline (PBS), followed by 4 h of incubation with 1 mg/mL of MTT. Subsequently, the MTT solution was removed, and the formed formazane solids were dissolved in dimethyl sulfoxide for 30 min. The photometric evaluation (at 540 nm and 690 nm) was carried out using an xMark™ Microplate Absorbance Spectrophotometer (Bio-Rad, Hercules, CA, USA) [88].
# (§3) A549 (ATCC® CCL-185), HepG2 (ATCC® HB-8065) and HEL299 (ATCC® CCL-137) cells were obtained from Lambda Life (Bratislava, Slovakia). A549 cells were kept in Dulbecco’s Modified Eagle’s Medium (DMEM) supplemented with 10% fetal bovine serum (FBS) and 1% antibiotics (penicillin and streptomycin). HepG2 cells were kept in Williams medium supplemented with 10% fetal bovine serum (FBS) and 1% antibiotics (penicillin and streptomycin). HEL299 cells were kept in Minimum Essential Medium (MEM) supplemented with 10% fetal bovine serum (FBS), 1% antibiotics (penicillin and streptomycin) and 1% non-essential amino acids (NEAA). The cells were cultured in a humidified atmosphere of 5% CO2 at 37 °C. Once the cells reached approximately 80% confluence, they were harvested and subcultured after trypsin treatment.
# HepG2 cells = assay: MTT cytotoxicity assay, HepG2; assay type: cell-based, human; details: 72 h
# Procedure: as §1, §2, §3
# [1] = tested on: HEL cells (human lung fibroblast, normal); assay: MTT cytotoxicity assay, HEL; assay type: cell-based; details: 72 h
# Procedure: as §1, §2, §3
# [2] = SOD mimetic activity / radical scavenging assay (INT method); assay type: biochemical
# Procedure: The radical scavenging ability with respect to the SOD mimetic activity of the prepared complexes was determined by the INT method. This method is based on a competitive reaction with the superoxide anion radical from KO2 between the measured compound (complex) and 2-(4-Iodophenyl)-3-(4-nitrophenyl)-5-phenyl-2H-tetrazolium chloride (INT). INT reacts with the single electron of O2^− and produces blue-green formazane detected as light absorption at 500 nm. Complexes with good antiradical activity also react with O2^−, and as a result of this, less formazane is formed.
# The first type of antiradical activity measurements involved the determination of inhibition percent values of electron transfer on INT at specific concentrations (Table 9). Two concentrations were selected to achieve good solubility of the complexes (4 and 1 mM for 4a and 4c, 2 and 1 mM for 4b). The complex 4b dissolved readily at a concentration of 4 mM, but the mixture was very dark, making measurements at 500 nm difficult. Therefore, a less concentrated initial solution was used (2 mM) as the higher concentration. In total, 0.5 mL of the initial solutions was used to prepare sample solutions that also contained INT and KO2 solutions and DMSO with an overall volume of 3.5 mL. The resulting concentrations were c1 = 0.572 mM, c1* = 0.286 mM and c2 = 0.143 mM, respectively. Complexes 4a and 4c once again provided high percentages at c1 (approximately 96–99%) but the activity dropped below 24% at c2, while complex 4b maintained mediocre activity at both concentrations. It seems that the concentration increase had only a small effect on the activity of 4b; something similar was also observed in the DNA cleavage study for complex 4b. The complexes were compared with the model compound cystamine, which was used as a standard for superoxide antiradical scavenging due to the presence of a free […] group, which is also present in glutathione.
# To improve the comparability of SOD mimetic activity, IC50 concentrations were determined by performing a series of measurements with decreasing concentration. IC50 values were calculated from the trend function equation as the concentration with 50% inhibition of electron transfer on INT (Table 10).
# The method is based on the agent 2-(4-Iodophenyl)-3-(4-nitrophenyl)-5-phenyl-2H-tetrazolium chloride (INT), able to scavenge a superoxide radical anion from KO2. The reaction produces a blue-green formazane, which is detected as light absorption at 500 nm. The radical scavengers (measured complexes) compete with INT for radicals and reduce the formation of formazane and light absorption at 500 nm. Antiradical activity was measured on a Synergy HT BioTek spectrophotometer. DMSO was used as the solvent for the complex and KO2 (saturated solution). The INT initial solution (4 M) was prepared in a sodium tetraborate buffer solution with pH adjusted to 7.1 with HCl.
# For each measurement, an initial solution of the sample (0.5 mL) of a specific concentration (4–0.1 mM) was prepared in DMSO. Due to the addition of INT (0.5 mL) and KO2 (0.5 mL) solutions and additional DMSO (2 mL), the concentrations of the measured complexes decreased seven times (3.5 mL of total mixture). Each result was the average value of three parallel measurements expressed with a standard deviation (more information in the Supplementary Materials). For the determination of SOD-IC50, several measurements with decreasing sample concentration were performed. […] A linear trend function of the percentage of inhibition and negative logarithm of concentration was used to calculate the SOD-IC50 value as the concentration with 50% inhibition of INT–formazane formation. […]
# Green: 5c 5 mM (S. cerevisiae 1x10^9 cells /ml + 0.5 ml 0.9% NaCl + 0.5 ml 5c + 0.1 ml Resazurin OX) measured in time
# S6. SOD Mimetic A ctivity A ssay
# For each measurement, an initial solution of the sample of a specific concentration was prepared […]
"IC50 ([2]; 50% inhibition of electron transfer on INT, read-out: SOD-IC50) [µM]","IC50 ([2]; INT method, read-out: concentration of 50% inhibition (SOD-IC50), given as range) [µM]",SMILES,IC50 (A549 cells) [µM],IC50 (HepG2 cells) [µM],IC50 [1] [µM],"Activity at c1 (%), inhibition of radical transfer to INT ([2]; c1 = 0.572 mM) [%]","Activity at c2 (%), inhibition of radical transfer to INT ([2]; c2 = 0.143 mM) [%]"
–,–,"N.N.[Cl][Pt][Cl] [cisplatin, reference compound]",26.2 ± 4.1,16 ± 3.4,68.4 ± 0.3,–,–
1700 ± 100,> 1000,"NCCSSCCN [cystamine, reference compound]",–,–,–,22.1 ± 1.8,2.0 ± 0.0
